These results are taken from publication PMC12029898, “Cellular Metabolomics Reveals Differences in the Scope of Liver Protection Between Ammonium-Based Glycyrrhizinate and Magnesium Isoglycyrrhizinate” (Metabolites, 2025).

The subject of this test is LO2 cells. The experiment in a line: Cell metabolomics (UPLC-MS/MSe) of APAP-injured LO2 cells, differential metabolites DIAM vs MAGN. The test is classed as cell-based, human. Particulars: 600 μM, 48 h. How it is done: LC-MS/MS analysis was conducted utilizing a Waters Acquity H UPLC system, interfaced with a Q-MS detector (Xevo G3 QTof, Waters, Milford, MA, USA). Chromatographic separation of metabolites was achieved on a BEH C18 Column (1.7 µm, 2.1 mm × 100 mm, Waters), maintained at a temperature of 40 °C. The injector sample chamber was maintained at 4 °C to ensure optimal sample handling. For positive ion analysis, the mobile phase comprised two solvents, 0.1% formic acid in water (solvent A) and acetonitrile (solvent B), delivered at a flow rate of 300 μL/min. The elution gradient was programmed as follows (acetonitrile percentage): 0–1 min 5%, 1–2 min 5–30%, 2–4 min 30–50%, 4–16 min 50–90%, 19–21 min 95%, 21–21.1 min 95–5%, and 21.1–23 min 5%. The capillary, sample cone, and source offset were set as 2.18 kV, 40, and 30. The temperatures of the source and desolvation were 100 and 600 °C. The gas flow of the cone gas and desolvation gas was set as 50 and 800 L/h. For the negative ion mode, the mobile phase consisted of 10 mM ammonium acetate (solvent A) and acetonitrile (solvent B), delivered at a flow rate of 300 μL/min. The elution gradient was programmed as follows: 0–1 min, 5%; 1–3 min, 5–80%; 3–4 min, 80–82%; 4–6 min, 82–88%; 6–25 min, 88–92%; 25–27 min, 92–95%; 27–27.1 min, 95–5%; 27.1–29 min, 5%. The mass spectrometry conditions were similar to those employed in the positive mode, with the exception of the capillary voltage, which was set to 2 kV. All samples were analyzed using an ESI source in MSe full scan mode, with a mass range spanning from m/z 50 to 2000 and a scan time of 0.5 s. Additionally, an automatic calibration system was employed to automatically adjust the MS and MSe parameters every 10 s.
LO2 cells in the logarithmic growth phase were seeded into a 6-well plate at a density of 3 × 10^4 cells per well and incubated overnight under conditions of 37 °C and 5% CO2. Subsequently, varying concentrations of APAP were introduced, and MONO, DIAM, and MAGN were dissolved in the culture medium prior to their addition to the wells, ensuring a final concentration of 600 μM. The cells were then exposed to these samples for 48 h, following which the culture medium was discarded. The cells were rinsed with pre-cooled PBS at 4 °C and subsequently inactivated by the addition of 80% methanol maintained at a temperature below −20 °C. The cells were scraped off and homogenized using a cell disruptor for 3 min in an ice bath. The homogenized samples were centrifuged at 7500× g for 20 min at 4 °C, and the resultant supernatant was collected and dried using nitrogen gas. The dried samples were redissolved in 80% methanol at −20 °C, vortexed for 1 min, sonicated for 30 s, and then centrifuged again at 7500× g for 20 min at 4 °C. A total of 10 μL was allocated from each sample and mixed as a quality control (QC) sample, while 5 μL of the supernatant was subjected to UPLC-MS/MSe data acquisition on the instrument. The entire procedure was repeated in parallel for all samples, with a total of six replicates performed.
Firstly, the raw data in the “.raw” format were imported into Progenesis QI software (Waters, Milford, MA, USA). This processing encompassed peak alignment, deconvolution, denoising, and other essential steps, resulting in the extraction of crucial information including retention time, charge-to-mass ratio, compound names, peak areas, and related parameters. To ensure data comparability and accuracy, each peak was then normalized against the total ion intensity, yielding a standardized matrix of retention time, peak area, and m/z values. […] Concurrently, the processed data were imported into SIMCA-P 14.0 software (Umetrics, Umeaa, Sweden) for advanced multivariate statistical analysis, encompassing principal component analysis (PCA) and supervised Orthogonal Partial Least Squares Discriminant Analysis (OPLS-DA). […]

Where only a bound is given, the exact number is not on record here.

For `CC1(C)[C@@H](O[C@H]2O[C@H](C(=O)O)[C@@H](O)[C@H](O)[C@H]2O[C@@H]2O[C@H](C(=O)O)[C@@H](O)[C@H](O)[C@H]2O)CC[C@]2(C)[C@H]3C(=O)C=C4[C@@H]5C[C@@](C)(C(=O)O)CC[C@]5(C)CC[C@@]4(C)[C@]3(C)CC[C@@H]12` [DIAM, diammonium glycyrrhizinate], for the setting “highest group DIAM vs MAGN”, the “FC of 3-(10Z)-10-Heptadecen-1-ylphenol” value is on record as 1.68, the “FC of 7-Dehydrocholesterol benzoate” value is listed as over 10, the “FC of 8-Demethyl meiqx” value was 1.92 and the “FC of 25-Hydroxyvitamin D2” value turned out to be 3.85. Also, under “highest group DIAM vs MAGN”, the “FC of Ammonium glycyrrhizate” value was determined as 2.12, the “FC of Argiotoxin 659” value turned out to be 2.98, the “FC of Butyroin” value is 1.23 and the “FC of C14 Ceramide” value is recorded as 1.20. In addition, for the setting “highest group DIAM vs MAGN”, the “FC of C16 Lactosylceramide (d18:1/16:0)” value is recorded as 1.24, the “FC of CETYL BENZOATE” value is given as 1.37, the “FC of Cerlapirdine” value is given as over 10 and the “FC of Ergocryptine” value turned out to be 1.92. Also, under “highest group DIAM vs MAGN”, the “FC of Euscaphic acid” value was found to be 4.79, the “FC of Floctafenine” value stood at 4.41, the “FC of Glabric acid” value is over 10 and the “FC of Glycerol phenylbutyrate” value worked out at 1.36. Besides, under “highest group DIAM vs MAGN”, the “FC of Glycyrrhetaldehyde” value is given as over 10, the “FC of Glycyrrhizin” value is given as 1.24, the “FC of Gypsogenin” value is 1.79 and the “FC of N-eicosanoylsphinganine” value worked out at 2.07. For the setting “highest group DIAM vs MAGN”, the “FC of N-tetracosanoylsphinganine” value was over 10, the “FC of Onnamide A” value is on record as 2.42, the “FC of Pinnatoxin G” value is on record as 1.55 and the “FC of Prednisolone sodium tetrahydrophthalic” value turned out to be 1.66. Further, for the setting “highest group DIAM vs MAGN”, the “FC of Pristimerin” value was determined as 1.26, the “FC of Propapyriogenin A2” value is reported as 6.06, the “FC of Sampangine” value is over 10 and the “FC of Sphingosine-1-phosphate (d16:1)” value is 3.78. Moreover, for the setting “highest group DIAM vs MAGN”, the “FC of Stanozolol” value is 1.81, the “FC of Testosterone ketolaurate” value is 1.67, the “FC of Tetrahydrospirilloxanthin” value is 1.29 and the “FC of Tirilazad” value came out at 1.74. Moreover, under “highest group DIAM vs MAGN”, the “FC of Tisocalcitate” value came to 1.39, the “FC of Trametenolic acid” value is over 10 and the “FC of Varespladib” value is 1.71.

With `CC1(C)[C@@H](O[C@H]2O[C@H](C(=O)O)[C@@H](O)[C@H](O)[C@H]2O[C@@H]2O[C@H](C(=O)O)[C@@H](O)[C@H](O)[C@H]2O)CC[C@]2(C)[C@H]3C(=O)C=C4[C@H]5C[C@@](C)(C(=O)O)CC[C@]5(C)CC[C@@]4(C)[C@]3(C)CC[C@@H]12` [MAGN, magnesium isoglycyrrhizinate], the GSH-to-GSSG ratio entry (MAGN compared to DIAM) is listed as “stable”. For the same molecule, under “highest group MAGN vs DIAM”, the “FC of Alpha-Cehc” value was 1.21, the “FC of Dioleoylphosphatidylserine” value is 1.92, the “FC of GSH” value was 1.24 and the “FC of GSSG” value came out at 1.28. Besides, where the note is “highest group MAGN vs DIAM”, the “FC of Menaquinol-8” value is reported as 1.68, the “FC of N-[(15Z)-tetracosenoyl]sphing-4-enine-1-phosphocholine” value stood at 2.55 and the “FC of Solanidine” value is 1.32.
